{
  "source": "patent US20200289481A1",
  "about": "“SUSTAINED-RELEASE PHARMACEUTICAL COMPOSITION” (ISHIHARA SANGYO KAISHA, LTD., priority 2017, published 2020)",
  "key": {"[1]": {"assay": "Evaluation test of elution in phosphate-buffered saline (pH 7.4), elution rate of compound 1 by UPLC-MS", "assay_type": "physicochemical", "details": "phosphate-buffered saline pH 7.4, 37°C, shaking 60 strokes/min", "protocol": "(§1) Quantitative determination of the concentration of the compound 1 in the following Test Examples and Reference Examples was performed using ultra-high performance liquid chromatography with a single quadrupole mass spectrometer as a detector.\nAn evaluation test of the elution of the fine particle a prepared in Reference Example 1-1 was performed in the same manner as in Test Example 1 mentioned later. Specifically, the fine particle a (10 mg) was added to phosphate-buffered saline (pH 7.4, 30 mL), and using a shaker, the mixture was horizontally shaken at 37° C. for 24 hours at a shaking speed of 60 strokes/min and with a shaking width of 2.0 cm/stroke to evaluate “elution”. Quantitative determination of the concentration of the compound 1 was performed using ultra-high performance liquid chromatography with a single quadrupole mass spectrometer as a detector to calculate an elution rate. The test results of the fine particle a are shown in Table 1 below together with the test results of the compound 1 bulk powder obtained in Test Example 1 mentioned later.\nUsing the fine particles A, B, C, D and E prepared in Test Example 1-1 and the compound 1 bulk powder, an evaluation test of each elution was performed. Each of the fine particles A, B, C, D and E and the compound 1 bulk powder (10 mg) was added to phosphate-buffered saline (pH 7.4, 30 mL), and using a shaker, the mixtures were horizontally shaken at 37° C. for 24 hours at a shaking speed of 60 strokes/min and with a shaking width of 2.0 cm/stroke to evaluate “elution”. Quantitative determination of the concentration of the compound 1 was performed using ultra-high performance liquid chromatography with a single quadrupole mass spectrometer as a detector to calculate an elution rate.\nUsing the fine particle F prepared in Test Example 2-1 and the compound 1 bulk powder, an evaluation test of each elution was performed in the same manner as in Test Example 1. Each of the fine particle F and the compound 1 bulk powder (10 mg) was added to phosphate-buffered saline (pH 7.4, 30 mL), and using a shaker, the mixtures were horizontally shaken at 37° C. for 72 hours at a shaking speed of 60 strokes/min and with a shaking width of 2.0 cm/stroke to evaluate “elution”."}, "[2]": {"assay": "Pharmacokinetic evaluation: concentration of compound 1 in plasma after single administration to SD male rats", "assay_type": "in vivo", "details": "for BA / AUC(0-inf) / Cmax / Tmax / half-life: 5 mg/kg as compound 1, single, SD male rats; for AUC(0-inf) / Cmax / Tmax / half-life: rat, plasma", "protocol": "as §1\nTo evaluate the sustained-release ability of fine particle B, the concentration of the compound 1 in blood was measured over time after subcutaneous administration of the fine particle B or the compound 1 bulk powder to rats or after oral administration of the compound 1 bulk powder to rats. The fine particle B was suspended in physiological saline and the compound 1 bulk powder was dissolved in physiological saline, and then 5 mg/kg each as an amount of the compound 1 was singly administered to SD male rats. After administration, blood was collected over time from the tail vein, and the blood was transferred into a micro test tube treated with heparin, and immediately cooled in ice. After cooling in ice, the blood was immediately centrifuged at 4° C. and 10,000 g for 10 minutes. The concentration of the compound 1 in plasma thus obtained was quantitatively determined using ultra-high performance liquid chromatography with a single quadrupole mass spectrometer as a detector.\nCmax, Tmax, T1/2, AUC0-∞ and BA represent maximum blood concentration (concentration at the peak of blood concentration curve), time to reach maximum blood concentration (time to reach the peak of blood concentration curve), half-life of the concentration of drug in blood, area under curve from initiation of administration to drug elimination and bioavailability, respectively.\nTo evaluate the sustained-release ability of fine particle F, the concentration of the compound 1 in blood was measured over time after subcutaneous administration of the fine particle F prepared in Test Example 2-1 or the compound 1 bulk powder to rats. The method was same as in Test Example 1-3. Specifically, the fine particle F was suspended in physiological saline and the compound 1 bulk powder was dissolved in physiological saline, and then 5 mg/kg each as an amount of the compound 1 was singly subcutaneously administered to SD male rats. After subcutaneous administration, blood was collected over time from the tail vein, and the blood was transferred into a micro test tube treated with heparin, and immediately cooled in ice. After cooling in ice, the blood was immediately centrifuged at 4° C. and 10,000 g for 10 minutes. The concentration of the compound 1 in plasma thus obtained was quantitatively determined using ultra-high performance liquid chromatography with a single quadrupole mass spectrometer as a detector.\nTo evaluate the sustained-release ability of the hydrogel a prepared in Reference Example 3-1, the concentration of the compound 1 in blood was measured over time after subcutaneous administration of the hydrogel a or the compound 1 bulk powder to rats. Specifically, the hydrogel a or the compound 1 bulk powder at a dose of 5 mg/kg as an amount of the compound 1 was singly subcutaneously administered to SD male rats. After subcutaneous administration, blood was collected over time from the tail vein, and the blood was transferred into a micro test tube treated with heparin, and immediately cooled in ice. After cooling in ice, the blood was immediately centrifuged at 4° C. and 10,000 g for 10 minutes. The concentration of the compound 1 in plasma thus obtained was quantitatively determined using ultra-high performance liquid chromatography with a single quadrupole mass spectrometer as a detector. […]"}, "[3]": {"details": "sc, subcutaneous administration"}, "[4]": {"details": "subcutaneous administration, 5 mg/kg as compound 1, SD male rats"}},
  "note": "Structures can show the parent of a compound that is named as a salt.",
  "data": [
    {"compound": "CCS(=O)(=O)Nc1ncc(C(F)(F)F)cc1NC(=O)C1CCCCC1", "note": "[Compound 1 bulk powder, N-(2-ethylsulfonylamino-5-trifluoromethyl-3-pyridyl)cyclohexanecarboxamide-monosodium salt-monohydrate]", "values": [
      {"measurement": "Elution rate", "setting": "[1]; Time 0 h", "result": 0, "unit": "%"},
      {"measurement": "Elution rate", "setting": "[1]; Time 0.5 h", "result": "83.73 ± 4.31", "unit": "%"},
      {"measurement": "Elution rate", "setting": "[1]; Time 1 h", "result": "93.59 ± 1.63", "unit": "%"},
      {"measurement": "Elution rate", "setting": "[1]; Time 3 h", "result": "94.77 ± 2.26", "unit": "%"},
      {"measurement": "Elution rate", "setting": "[1]; Time 6 h", "result": "92.00 ± 2.45", "unit": "%"},
      {"measurement": "Elution rate", "setting": "[1]; Time 12 h", "result": "91.63 ± 1.84", "unit": "%"},
      {"measurement": "Elution rate", "setting": "[1]; Time 24 h", "result": "97.10 ± 1.96", "unit": "%"},
      {"measurement": "Elution rate", "setting": "[1]; Time 48 h", "result": "91.10 ± 3.80", "unit": "%"},
      {"measurement": "Elution rate", "setting": "[1]; Time 72 h", "result": "93.29 ± 1.36", "unit": "%"},
      {"measurement": "BA", "setting": "[2]; oral administration", "result": 41, "unit": "%"},
      {"measurement": "AUC(0-inf)", "setting": "[2]; [3]", "result": "8550 ± 600", "unit": "ng·h/mL"},
      {"measurement": "Cmax", "setting": "[2]; [3]", "result": "9600 ± 700", "unit": "ng/mL"},
      {"measurement": "Tmax", "setting": "[2]; [3]", "result": 15, "unit": "min"},
      {"measurement": "half-life", "setting": "[2]; [3]", "result": 21.6, "unit": "min"},
      {"measurement": "AUC(0-inf)", "setting": "[2]; oral administration", "result": "5160 ± 200", "unit": "ng·h/mL"},
      {"measurement": "Cmax", "setting": "[2]; oral administration", "result": "3100 ± 500", "unit": "ng/mL"},
      {"measurement": "Tmax", "setting": "[2]; oral administration", "result": 15, "unit": "min"},
      {"measurement": "half-life", "setting": "[2]; oral administration", "result": "68.4 ± 12", "unit": "min"},
      {"measurement": "Concentration of compound 1 in plasma at 12 hours after administration", "setting": "[2]; [4]", "result": "below the detection limit"},
      {"measurement": "Concentration of compound 1 in plasma at 24 hours after administration", "setting": "[2]; [4]", "result": "below the detection limit"},
      {"measurement": "BA", "setting": "[2]; subcutaneous administration", "result": 67, "unit": "%"}
    ]}
  ]
}
